The values below come from ChEMBL document CHEMBL4334438, “Discovery of novel glycogen synthase kinase-3α inhibitors: Structure-based virtual screening, preliminary SAR and biological evaluation for treatment of acute myeloid leukemia” (Eur J Med Chem, 2019).

Data set [1] can be described thus: Activation of wnt/beta-catenin signalling pathway in human HL60 cells assessed as stabilization of beta-catenin at 1 to 30 uM after 24 hrs by Western blot analysis. Type of data set: cell-based. A general note: Immunoblotting shows a protein as a band on a membrane.
The subject of data set [2] is NB-4. The data set can be described thus: Induction of cell differentiation in human NB4 cells assessed as increase in CD11b-APC-Cy7 positive cells after 6 days by flow cytometry analysis. Type of data set: functional, cell-based. On the technique in general: A flow cytometer gives signals particle by particle.
Data set [3] concerns HL-60. The data set can be described thus: Induction of monocytic differentiation in human HL60 cells assessed as increase in CD11b-APC-Cy7 positive cells at 30 uM after 6 days by flow cytometry analysis. Type of data set: functional, cell-based.
In data set [4] the test system is HL-60. As to the kind of experiment: Induction of cell differentiation in human HL60 cells assessed as increase in CD11b-APC-Cy7 positive cells after 6 days by flow cytometry analysis. Type of data set: functional, cell-based.
Data set [5] is described as follows: Activation of wnt/beta-catenin signalling pathway in human NB4 cells assessed as stabilization of beta-catenin at 1 to 30 uM after 24 hrs by Western blot analysis. Type of data set: cell-based.
In data set [6] the test system is NB-4. The data set can be described thus: Induction of monocytic differentiation in human NB4 cells assessed as increase in CD14 positive cells at 30 uM after 6 days by FITC staining based flow cytometry analysis. Type of data set: functional, cell-based.
For data set [7], the system named is NB-4. As to the kind of experiment: Induction of cell differentiation in human NB4 cells assessed as increase in CD11c-APC positive cells after 6 days by flow cytometry analysis. Type of data set: functional, cell-based.
Data set [8] has as its system NB-4. As to the kind of experiment: Induction of monocytic differentiation in human NB4 cells assessed as increase in CD11c-APC positive cells at 30 uM after 6 days by flow cytometry analysis. Type of data set: functional, cell-based.
Data set [9] has as its target Casein kinase I isoform epsilon (Homo sapiens) (UniProt P49674). As to the kind of experiment: Inhibition of recombinant human CK1epsilon assessed as residual activity at 1 uM using KRRRALS(p)VASLPGL as substrate incubated for 120 mins in presence of [gamma-33ATP] by scintillation counting based radiometry assay relative to control.
Data set [10] relates to HL-60. The data set can be described thus: Induction of cell differentiation in human HL60 cells assessed as increase in CD14-FITC positive cells after 6 days by flow cytometry analysis. Type of data set: functional, cell-based.
Data set [11] addresses Serine/threonine-protein kinase DCLK1 (Homo sapiens) (UniProt O15075). As to the kind of experiment: Inhibition of recombinant human DCAMKL1 assessed as residual activity at 1 uM radiometric assay relative to control.
For data set [12], the species on record is Homo sapiens. As to the kind of experiment: Selectivity index, ratio of IC50 for inhibition of human GSK-3beta H350L mutant (2 to end residues) to IC50 for inhibition of human GSK-3alpha S449A mutant (2 to end residues).
Data set [13] has as its system HL-60. As to the kind of experiment: Induction of cell differentiation in human HL60 cells assessed as increase in CD11c-APC positive cells after 6 days by flow cytometry analysis. Type of data set: functional, cell-based.

The source made the active and inactive calls. The calls are words filed in the database; no cut-off is given here.

Chain of Casein kinase I isoform epsilon (Homo sapiens) (P49674 whole entry, looked up, canonical isoform): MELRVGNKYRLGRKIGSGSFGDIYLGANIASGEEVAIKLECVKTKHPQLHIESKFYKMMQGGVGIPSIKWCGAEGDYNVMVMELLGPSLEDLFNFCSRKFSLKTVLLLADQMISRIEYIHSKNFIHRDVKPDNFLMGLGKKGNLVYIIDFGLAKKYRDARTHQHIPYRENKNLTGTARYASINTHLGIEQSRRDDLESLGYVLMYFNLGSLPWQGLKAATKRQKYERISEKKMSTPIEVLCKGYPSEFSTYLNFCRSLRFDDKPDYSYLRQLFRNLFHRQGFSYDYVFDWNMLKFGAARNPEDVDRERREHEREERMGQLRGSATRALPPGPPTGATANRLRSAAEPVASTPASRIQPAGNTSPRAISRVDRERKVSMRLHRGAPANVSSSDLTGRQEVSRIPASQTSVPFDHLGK
Chain of Serine/threonine-protein kinase DCLK1 (Homo sapiens) (O15075 whole entry): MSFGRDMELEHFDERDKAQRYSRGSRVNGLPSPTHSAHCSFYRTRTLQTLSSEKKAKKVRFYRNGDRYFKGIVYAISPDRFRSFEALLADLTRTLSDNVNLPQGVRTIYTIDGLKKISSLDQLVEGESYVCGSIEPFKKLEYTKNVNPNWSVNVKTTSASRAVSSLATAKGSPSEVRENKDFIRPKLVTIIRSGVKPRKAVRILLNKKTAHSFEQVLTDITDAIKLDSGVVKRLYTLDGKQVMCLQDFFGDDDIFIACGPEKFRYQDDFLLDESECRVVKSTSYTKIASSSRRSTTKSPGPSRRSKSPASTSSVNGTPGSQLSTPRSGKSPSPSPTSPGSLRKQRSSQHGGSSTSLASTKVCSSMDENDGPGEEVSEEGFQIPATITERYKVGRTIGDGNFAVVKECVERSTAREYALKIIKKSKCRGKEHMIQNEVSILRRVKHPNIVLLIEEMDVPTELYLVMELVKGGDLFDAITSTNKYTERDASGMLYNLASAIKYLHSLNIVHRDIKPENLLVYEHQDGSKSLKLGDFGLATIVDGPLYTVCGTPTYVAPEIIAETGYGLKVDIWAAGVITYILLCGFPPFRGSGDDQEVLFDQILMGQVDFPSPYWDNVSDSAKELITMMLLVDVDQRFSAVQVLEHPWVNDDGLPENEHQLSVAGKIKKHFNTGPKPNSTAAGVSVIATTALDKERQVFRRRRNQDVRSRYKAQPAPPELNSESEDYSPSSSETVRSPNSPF

With `C=CCOC(=O)c1cc(-c2ccc(/C=C3/NC(=S)NC3=O)o2)ccc1Cl`, the Activity result in [1] is “Not Active”; in [2] it was “Dose-dependent effect”; in [4], “Dose-dependent effect”; in data set [5], “Not Active”; in data set [7] it was “Dose-dependent effect”; in data set [9], 91%. For the same compound, the Activity result in data set [10] was “Dose-dependent effect”; in data set [11], 85%; in data set [13], “Dose-dependent effect”. In addition, the outcome in data set [3], in [6] and in [8] was Active. The Ratio IC50 in data set [12] came out at 6.6.
